Data published in patent US20090247495A1, “CU[…] AND USES THEREOF” (priority 2007, published 2009).

Columns and labels:
K562 = experiment: Cell proliferation assay using SRB, K562; assay type: cell-based; details: Homo sapiens, 48 hours treatment
Procedure: Human leukemia cell lines CCRF-CEM, K562, MOLT-4, RPMI-8226 and SR, purchased from the National Cancer Institute (NCI), were cultured in RPMI 1640 medium supplemented with 5%(v/v) fetal Bovine […] and 100 units/ml penicillin and 100 units/ml streptomycin in a humidified 5% CO2 atmosphere at 37° C. • 6.1.2 Reagents and Antibodies
All 5 human leukemia cells were screened by the cell proliferation assay using SRB to quantitative cell protein mass following cucurbitacin B treatment. The experiments were repeated in triplicate. Appropriate number of cells (depends on the doubling time of cells) were seeded into a 96-well tissue culture plate and growth in the indicated medium in presence of different dosages of cucurbitacin B for 2 days. Afterwards 25 μl 80%TCA reagent was added into each well to fix the cells and the plates were incubated at 4° C. at least for 1 hour. Then the plates were washed with tap water and air dried. […] The plates were air dried and dissolved by 100 μl 1 OmMTrizma-base solution and the absorbance was measured at 515 nm using FLUOstar OPTIMA equipment. • 6.1.4 Flow Cytometry for Apoptosis Analysis
Appropriate number of cell density were seeded into a 96 well culture plate and treated with different doses of cucurbitacin B for 2 days. The growth inhibition effects of cucurbitacin B on the cells were detected using SRB.

K562 cells = experiment: Flow cytometry for apoptosis analysis (Annexin V / PI), K562; assay type: cell-based, human; details: 80 nM, 48 hours
Procedure: 10^5/ml K562 cells were treated with cucurbitacin B in the presence of complete medium containing 10% FBS for 48 hours. The changes in cell morphology were visualized using Leica DMIL (Leica Microsystem). Cells were harvested and rinsed twice with ice-cold PBS (pH7.4) and a total 2.5×10^5 K562 cells were stained with 10 μl Annexin V and 10 μl propidium iodide in 100 μl 1×binding buffer for 15 minutes in dark and then subjected to apoptosis analysis with FACSCalibar Flow cytometer system (FACS Calibur BD Flow Cytometer). • 6.1.5 Flow Cytometry for Cell Cycle Analysis
Appropriate number of cell density were seeded into T-25 culture flask and treated with different doses of cucurbitacin B for 2 days. The apoptotic effects of cucurbitacin B on the cells were detected using Flow Cytometry analysis after stained with Anx.V and PI for 15 minutes. […] Cucuribitacin B induced apoptosis in a dose dependent manner, among them, 80 nM induced the highest apoptotic effect in K562 cells, with over 50% cells in apoptotic population and 10% cells in the necrotic population (late apoptotic and necrotic phase). The effect of cucurbitacin B on apoptosis and cell cycle profile in K562 cells were analyzed using flow cytometry, as depicted in FIG. 3.

Panc-1 = experiment: MTT cell cytotoxicity assay, Panc-1; assay type: cell-based; details: Homo sapiens
Procedure: Three human pancreatic cancer cell lines (Panc-1, Panc 02.13, Panc 10.05) were purchased from American Type Culture Collection (ATCC, Manassas, Va., USA). Panc 02.13 and Panc 10.05 were grown in RPMI 1640 medium supplemented with 15% FBS, 4.5 g/L glucose, 10 mM HEPES, and 1.0 mM sodium pyruvate and 10 Units/ml human insulin; while PANC-1 was grown in Dulbecco's modified Eagle's medium supplemented with 10% FBS. They were maintained in a humidified 5% CO2 atmosphere at 37° C. and the culture medium was changed once in 2 days.
The cytotoxic effect of CuB on these three cancer cell lines were determined using MTT (3-[4,5-dimethylthiazol-2-yl]-2,5-diphenyl tetrazolium bromide) labeled cell cytotoxicity assay. A total of 1×10^4 cells were seeded into a 96-well plate for 24 hours prior to cucurbitacin B (CuB) treatment. They were then treated with different dosages of CuB for 48 hours. After the treatment, 20 μl of MTT (5 mg/ml) was added to each well and incubated for 4 hrs. Then the medium was discarded and 100 μl of dimethyl sulfoxide was added. The absorbance at 570 nm was then measured by FLUOstar OPTIMA equipment (BMG, LABTECH GmbH, Germany). The percentage of inhibition against different dosages of CuB were plotted using the Prism software and the 50% inhibition concentration (IC50) were obtained. […]

HL60 and U937 cells = experiment: Cell differentiation: CD11b expression by flow cytometry; assay type: cell-based, human; details: 96-hour treatment
Procedure: HL60 and U937 cells were incubated with vary doses of cucurbitacin B for 96 hours at 37° C. For analysis of cell differentiaion, cells were then incubated with either R-phycoerythrin-conjugated murine anti-human CD11b antibody (DAKO, Carpinteria, Calif.). For analysis of cell cycle, cells were washed and fixed with chilled methanol, and incubated on ice for 30 minutes prior to staining with propidium iodide. All analyses were performed by flow cytometry.
Following a 96-hour treatment with cucurbitacin B, HL60 (FIG. 14A) and U937 (FIG. 14B) cells were incubated with RPE-conjugated CD11b-specific antibody (dark grey) or RPE-conjugated IgGI control antibody (light grey), and flow cytometry was performed.

HepG2 = experiment: Hollow fiber assay, HepG2; assay type: in vivo, nude mice; details: 0.2 mg/kg, i.p., s.c. and p.o., up to 14 days
Procedure: The hollow fiber assay (HFA) was developed by the NCI as a high-throughput, preliminary in vivo screening assay for the evaluation of anti-cancer agents. Human liver cancer cell lines HepG2 and HepG2-resistant (HepG2-R) were in vitro cultured inside hollow fibers for a short term (48 hours), followed by in vivo implantation at s.c. sites of the nude mice. Mice were treated with negative control (0.5% CMC), positive control (10 mg/kg 5-Fluorouracil) and cucurbitacin B (0.2 mg/kg) for up to 14 days. Then the fibers were excised and analyzed for cell viability by MTT assay. The efficacies of cucurbitacin B against HepG2 and HepG2-R were expressed as the percentage of the results obtained in the negative control group.

[1] = tested on: Human cancer cell lines from the 59-NCI Cancer Cell Line Panel; assay type: cell-based
Jak, Stat3 and c-raf = experiment: Western blot of phosphorylated Jak, Stat3 and c-raf in Panc-1 cells; assay type: cell-based, human; details: IC50 dosage (0.8 uM)
Procedure: The drug treatment was terminated and the cells were rinsed twice with phosphate-buffered saline and lysed at 4° C. in a lysis buffer containing 50 mM Tris-HCl, pH7.5, 100 mM NaCl, 5 mM EDTA, 40 mM NaP2O7, 1% Triton X-100, 1 mM dithiothreitol, 200 μM Na3VO4, 100 uM phenylmethysufonyl fluoride, 2 μg/ml leupeptin, 4 μg/ml aprotinin and 0.7 μg/ml pepstatin. The insoluble protein lysate were removed by centrifugation for 10 minutes at 12,000 rpm. Fifty micrograms of protein lysate was resolved using 10% SDS-polyacryamide gel electrophoresis (PAGE) and then subjected to western blot anaylsis. Western blots were performed with antibodies specific for phosphor- and Jak, Stat3 and c-raf proteins. […] The protein bands were then visualized with the Enhanced Chemiluminescence Plus (ECL Plus) detection system (Amersham).
The proteins activation was detected by western blot.
Cell lysate (50 μg) of each sample was separated in 10% SDS-PAGE followed by immuno-blotting with anti-jak1 anti-jak2, anti-jak3, anti-Stat3 and c-raf antibodies to detect the phosphorylated form of jak1, jak2, jak3, Stat3 and c-raf.

Q: How did the GI50 (K562) turn out when `CC(=O)OC(C)(C)/C=C/C(=O)[C@](C)(O)C1[C@H](O)C[C@@]2(C)C3CC=C4C(C[C@H](O)C(=O)C4(C)C)[C@]3(C)C(=O)C[C@]12C` (some centres unmarked) [cucurbitacin B] was run?
A: The GI50 was 15.6 nM.

Q: And the “cells in apoptotic population” value (K562 cells)?
A: The value was “over 50%”.

Q: What about the “cells in the necrotic population (late apoptotic and necrotic phase)” value (K562 cells) of the same compound?
A: The value was 10%.

Q: What about the GI50 (Panc-1; MTT, 48 hours) of the same compound?
A: Its GI50 is 12400 nM.

Q: And the IC50 (Panc-1; read-out: IC50 (dose used for western blot))?
A: The IC50 was 800 nM.

Q: And the “expression of cell surface marker CD11b” value (HL60 and U937 cells)?
A: Its value is “enhanced expression”.

Q: And the “cell growth in hollow fibers” value (HepG2)?
A: The value was “potently inhibited”.

Q: And the “cell lines with G2/M arrest” value [1]?
A: The value was 6 out of 18.

Q: What about the cell cycle effect ([1]; HL60 (TB), 48 hours) of the same compound?
A: The cell cycle effect was “G2/M arrest and endoreduplication”.

Q: And the “Jak and c-raf activation” value (Jak, Stat3 and c-raf; 4 hours)?
A: Its value is “inhibited significantly”.

Q: What about the Stat3 activation (Jak, Stat3 and c-raf; 24 hours) of the same compound?
A: Its Stat3 activation is “inhibited significantly”.
